According to patent US20050065066A1, “Stabilised insulin compositions” (priority 2002, published 2005):
Where two headings read alike, the source gives them in different places.

Key:
[1] = target: T1, metal site of insulin R6 hexamers (Homo sapiens, UniProt P01308); experiment: TZD-assay: fluorescence based displacement assay; format: binding; details: affinity towards the zinc site, TZD-assay; read-out: Kd(app)
T1 construct: human insulin comprising additional amino acids, i.e. more than 51 amino acids
T1 sequence (P01308 25-54 limits assumed): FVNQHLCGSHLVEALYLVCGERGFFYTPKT
T1 sequence (P01308 90-110 limits assumed): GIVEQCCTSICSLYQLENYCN
Experimental: The binding affinity of ligands to the metal site of insulin R6 hexamers are measured in a fluorescense based displacement assay. The fluorescence of 5-(4-dimethylaminobenzylidene)thiazolidine-2,4-dione (TZD) which is a ligand for the metal site of insulin R6 is quenched upon displacement from the metal site to the solution. Titration of a ligand to a stock solution of insulin R6 hexamers with this compound mounted in the metal site allows the binding affinity of these ligands to be determined measuring the fluorescence at 455 nm upon excitation at 410 nm.
Stock solution: 0.02 mM human insulin, 0.007 mM Zn-acetate, 40 mM phenol, 0.01 mM TZD in 50 mM tris buffer adjusted to pH=8.0 with NaOH/ClO4^−.
The ligand is dissolved in DMSO to a concentration of 5 mM and added in aliquots to the stock solution to final concentrations of 0-250 µM.
Fluorescence measurements were carried out on a Perkin Elmer Spectrofluorometer LS50B. T main absorption band was excited at 410 nm and emission was detected at 455 nm. The resolution was 10 nm and 2.5 nm for excitation and emission, respectively.
This equation is fitted to the datapoints ΔF(455 nm))=ΔFmax* [ligand]free/(KD(app)*(1+[TZD]/KTZD)+[ligand]free)) KD(app) is the apparent dissociation constant and Fmax is the fluorescence at maximal ligand concentration. The value of KTZD is measured separately to 230 nM
Two different fitting-procedures can be used. One in which both parameters, KD(app) and Fmax, are adjusted to best fit the data and a second in which the value of Fmax is fixed (Fmax=1) and only KD(app) is adjusted. The given data are from the second fitting procedure. The Solver module of Microsoft Excel can be used to generate the fits from the data points.

[2] = Disappearance rate from the subcutaneous depot following injection in pigs; format: in vivo; details: disappearance assay
From the text: Formulations of the present invention were characterized by the disappearance rate from the subcutaneous depot following injection in pigs. Formulations of B28 Asp human insulin containing A14Tyr(^125I) B28 Asp human insulin were followed with an external γ-counter (Ribel et al., The pig as a model for subcutaneous absorption in man. In: Serrano-Ritos & Lefebre (Eds.): Diabetes (1985) proceedings ot the 12th congress of the international diabetes federation, Madrid, Spain, 1985 (Excerpta Medica, Amsterdam (1986) 891-896. Formulations of Insulin Aspart (0.6 mM, U100) containing 0.3 mM Zn^2+, 30 mM phenol, 2 mM phosphate buffer, and 1.6% glycerol, pH 7.4, were compared with the corresponding formulations containing 0.3 mM of the ligands shown below: where T50% is the time when 50% ot the A14Tyr(^125I) B28 Asp insulin has disappeared from the site of injection and Kd is the affinity of the ligand as measured by the TZD-assay described in “Analytical methods” below.

[3] = Chemical stability of insulin formulations by SEC (size exclusion chromatography); format: physicochemical; details: formulated human insulin, 3 Zn2+ per hexamer
Experimental: (§1) The chemical stability of insulin formulations of the invention was characterised by HPLC (RPC, reverse phase chromatography and SEC, size exclusion chromatography). As reference, insulin formulated without ligands of the invention but with 0.3% DMSO was also investigated and shown below: [drawing]
(§2) Storage in HPLC 1 ml vials at 45° C. (5 d), 37° C. (2 w), 30° C. (6 w), 25° C. (10 w), 15° C. (30 w) gave about the same increase of transformation products correlating to an increase in reactions constants of a factor 3-4 per 10 degree.
SEC (size exclusion chromatography) on Waters insulin HMWP column, 300×7.8 mm, eluted by 15:20:65 of acetic acid: acetonitrile: arginine 1 g/L at flow of 1 mL/min and ambient temperature.

[4] = Chemical stability of insulin formulations by RPC (reverse phase chromatography); format: physicochemical; details: formulated human insulin, 3 Zn2+ per hexamer
Experimental: as §1
FIG. 10. Reverse phase chromatography of formulated human insulin with 3 Zn^2+ per hexamer, 30 mM phenol, 150 mM mannitol, 3 mM phosphoric acid, sodium hydroxide to pH 7.4 and 0.3% DMSO corresponding to 3 ligands per hexamer at start (upper panel) and after storage for 2 weeks at 37° C. (lower panel): Preservatives before 20 min., “hydrophilic derivatives” (desamido-insulins) 20 min to main top insulin, “hydrophobic derivatives 1” main top to 64 min., and “hydrophobic derivatives 2” (insulin dimers) after 64 min.
as §2
RPC (reverse phase chromatography) on Waters SymmetryShield RP8 column, 150×4.6 mm and 3.5 μm, eluted by A: 0.2 M sodium sulfate+0.04 M sodium phosphate pH 7.2+10% acetonitrile and isocratically (i) or a gradient (g) of B: 70% acetonitrile [minutes/% B(i/g): 0/19, 21/24(i)(sudden change), 51/24(i), 81/39(g), 81.1/0(i), 82.3/19(i)] at flow of 0.9 mL/min and 30° C.

[5] = target: T1, metal site of insulin R6 hexamers; details: taken from Huang et al., 1997; read-out: K4H3N; cited from earlier work

Row | Kd [1] [nM] | effect on insulin aspart disappearance from subcutaneous injection site [2] | dimer ([3]; 5° predicted) | dimer ([3]; 15° C.) [% formed/year] | dimer ([3]; 25° C.) [% formed/year] | dimer ([3]; 30° C.) [% formed/year] | dimer ([3]; 37° C.) [% formed/year] | dimer ([3]; 45° C.) [% formed/year] | hphil (hydrophilic derivatives, desamido-insulins) ([4]; 5° predicted) | hphob1 (hydrophobic derivatives 1) ([4]; 5° predicted) | hphob2 (hydrophobic derivatives 2, insulin dimers) ([4]; 5° predicted) | hphil (hydrophilic derivatives, desamido-insulins) ([4]; 15° C.) [% formed/year] | hphob1 (hydrophobic derivatives 1) ([4]; 15° C.) [% formed/year] | hphob2 (hydrophobic derivatives 2, insulin dimers) ([4]; 15° C.) [% formed/year] | hphil (hydrophilic derivatives, desamido-insulins) ([4]; 25° C.) [% formed/year] | hphob1 (hydrophobic derivatives 1) ([4]; 25° C.) [% formed/year] | hphob2 (hydrophobic derivatives 2, insulin dimers) ([4]; 25° C.) [% formed/year] | hphil (hydrophilic derivatives, desamido-insulins) ([4]; 30° C.) [% formed/year] | hphob1 (hydrophobic derivatives 1) ([4]; 30° C.) [% formed/year] | hphob2 (hydrophobic derivatives 2, insulin dimers) ([4]; 30° C.) [% formed/year] | Compound | other results
1 | 58 | no effect | (0.048) % formed/year | 0.28 | 1.09 | 2.17 | 6.24 | 21.2 | (0.293) % formed/year | (0.336) % formed/year | (0.062) % formed/year | 1.02 | 1.28 | 0.38 | 2.60 | 6.14 | 0.78 | 4.07 | 4.42 | 1.65 | O=C(O)/C=C/c1ccc(/C=C2\SC(=O)NC2=O)cc1 [Example 462] | hphil (hydrophilic derivatives, desamido-insulins) ([4]; 37° C.): 9.88 % formed/year; hphob1 (hydrophobic derivatives 1) ([4]; 37° C.): 19.5 % formed/year; hphob2 (hydrophobic derivatives 2, insulin dimers) ([4]; 37° C.): 4.68 % formed/year; hphil (hydrophilic derivatives, desamido-insulins) ([4]; 45° C.): 20.4 % formed/year; hphob1 (hydrophobic derivatives 1) ([4]; 45° C.): 43.8 % formed/year; hphob2 (hydrophobic derivatives 2, insulin dimers) ([4]; 45° C.): 17.5 % formed/year
2 | – | – | – | – | – | – | – | – | – | – | – | – | – | – | – | – | – | – | – | – | O=C(O)c1ccc([N+](=O)[O-])c(O)c1 [Example 4H3N, 3-hydroxy-4-nitro benzoic acid] | Kd [5]: 50000 nM
3 | 383 | no effect | (0.087) % formed/year | 0.45 | 1.61 | 2.86 | 7.02 | 26.3 | (0.55) % formed/year | (0.19) % formed/year | (0.079) % formed/year | 1.80 | 0.85 | 0.42 | 4.06 | 5.67 | 1.46 | 6.76 | 6.42 | 2.25 | O=C(O)c1cc2cc(Br)ccc2cc1O [Example 533, 7-bromo-3-hydroxy-2-naphthoic acid] | hphil (hydrophilic derivatives, desamido-insulins) ([4]; 37° C.): 12.5 % formed/year; hphob1 (hydrophobic derivatives 1) ([4]; 37° C.): 22.4 % formed/year; hphob2 (hydrophobic derivatives 2, insulin dimers) ([4]; 37° C.): 7.02 % formed/year; hphil (hydrophilic derivatives, desamido-insulins) ([4]; 45° C.): 30.7 % formed/year; hphob1 (hydrophobic derivatives 1) ([4]; 45° C.): 62.1 % formed/year; hphob2 (hydrophobic derivatives 2, insulin dimers) ([4]; 45° C.): 23.4 % formed/year
4 | 3 | no effect | – | – | – | – | – | – | – | – | – | – | – | – | – | – | – | – | – | – | Cc1ccccc1Cn1c2ccccc2c2cc(-c3nn[nH]n3)ccc21 [Example 756, 9-(2-Methylbenzyl)-3-(2H-tetrazol-5-yl)-9H-carbazole] | –
5 | 171 | no effect | – | – | – | – | – | – | – | – | – | – | – | – | – | – | – | – | – | – | O=C(O)c1ccc(Cn2c3ccccc3c3cc(-c4nn[nH]n4)ccc32)cc1 [Example 738, 9-(4-Carboxybenzyl)-3-(2H-tetrazol-5-yl)-9H-carbazole] | –
6 | 23 | no effect | – | – | – | – | – | – | – | – | – | – | – | – | – | – | – | – | – | – | O=C1NC(=O)/C(=C/c2cccc3ccccc23)S1 [Example 68, 5-Naphthalen-1-ylmethylenethiazolidine-2,4-dione] | –
